Reference: the supplement of paper PMC3937590

Assays:
Assay in all cases: -log10 GI50 (growth inhibition 50%) (-log10(M)); higher = more potent growth inhibition
[1] = test system: 184A1
Outline: (§1)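 Breast cancer cell lines were treated with each compound for 72 hours at nine doses in 1:5 serial dilution, in triplicate, and luminescence was read against a time-zero plate. A Gompertz curve was fitted to the dose-response data by nonlinear least squares to obtain GI50, the molar concentration giving the set level of growth inhibition, which is reported as its negative logarithm. The logarithm is base 10, and values equal to the top dose carry a < qualifier.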

[2] = test system: BT483
Outline: as §1

[3] = test system: HCC1187
Outline: as §1

[4] = test system: HCC38
Outline: as §1

[5] = test system: HCC70
Outline: as §1

[6] = test system: HS578T
Outline: as §1

[7] = test system: LY2
Outline: as §1

[8] = test system: MCF10F
Outline: as §1

[9] = test system: MCF12A
Outline: as §1

[10] = test system: MDAMB175VII
Outline: as §1

[11] = test system: MDAMB231
Outline: as §1

[12] = test system: MDAMB361
Outline: as §1

[13] = test system: MDAMB415
Outline: as §1

[14] = test system: SKBR3
Outline: as §1

[15] = test system: SUM149PT
Outline: as §1

[16] = test system: SUM159PT
Outline: as §1

[17] = test system: SUM229PE
Outline: as §1

[18] = test system: T47D
Outline: as §1

[19] = test system: UACC812
Outline: as §1

[20] = test system: HCC1954
Outline: as §1

Structure (SMILES) | -log10 GI50 [1] | -log10 GI50 [2] | -log10 GI50 [3] | -log10 GI50 [4] | -log10 GI50 [5] | -log10 GI50 [6] | -log10 GI50 [7] | -log10 GI50 [8] | -log10 GI50 [9] | -log10 GI50 [10] | -log10 GI50 [11] | -log10 GI50 [12] | -log10 GI50 [13] | -log10 GI50 [14] | -log10 GI50 [15] | -log10 GI50 [16] | -log10 GI50 [17] | -log10 GI50 [18] | -log10 GI50 [19] | -log10 GI50 [20]
CC(C)C[C@@H](C=O)NC(=O)[C@H](CC(C)C)NC(=O)[C@H](CC(C)C)NC(=O)OCc1ccccc1 [MG-132] | 7.73 | 6.81 | 7.1 | 6.6 | 7.19 | 6.64 | 6.49 | 7.14 | 7.32 | 6.66 | 6.59 | 6.62 | 7.08 | 6.58 | 6.8 | 7.27 | 6.98 | 6.97 | 6.72 | 
Cc1cc(C(=O)N2CCN(c3cccc(Cl)c3)CC2)n(-c2ccccc2)n1 [XRP44X] | 6.5 | 5.23 | 6.05 | 5.77 | 5.97 | 6 | 6.08 | < 3.88 | 6.67 | 5.44 | 5.98 | 6 | 6.2 |  | 5.88 | 6.21 | 6.6 | 5.41 | 6.15 | 6.3
CS(=O)(=O)CCNCc1ccc(-c2ccc3ncnc(Nc4ccc(OCc5cccc(F)c5)c(Cl)c4)c3c2)o1 [Lapatinib] | 5.86 | < 4.78 | < 4.78 | < 4.78 | 5.4 | < 4.78 |  | 4.94 |  | 6.04 | < 4.78 | 5.33 | < 4.78 | 6.39 |  | < 4.78 | 4.86 | 4.78 | 6.34 | 5.58
O=c1[nH]cc(F)c(=O)[nH]1 [Fluorouracil] | 3.88 | 4.48 | 4.04 | 3.72 | 3.99 | 4.34 | 4.43 | 5.37 | 4.82 | 3.96 | 3.75 | 3.98 | 3.66 | 4.48 | 4.14 | 4.68 | 4.08 |  | 4.34 | 4.79
COc1cc2c(Nc3ccc(NC(=O)c4ccccc4)cc3)ncnc2cc1OCCCN1CCOCC1 | < 4.3 | 4.56 | 6.39 | 6.21 | 5.85 | 5.88 |  | < 4 | 5.12 | 5.26 | < 4.3 | 5.41 | 5.45 | 4.76 | < 4 | 6.14 | 5.93 | 4.94 | 5.41 | < 4.48
COc1cccc2c1C(=O)c1c(O)c3c(c(O)c1C2=O)C[C@@](O)(C(=O)CO)C[C@@H]3O[C@H]1C[C@H](N)[C@H](O)[C@H](C)O1 [Doxorubicin] | 6.95 | 7 | 7.3 | 7.14 | 5.36 | 6.31 | 6.71 | 6.64 | 7.34 | 6.48 | 6.44 | 6.63 | 6.52 | 6.9 |  | 6.77 | 6.72 | 7.37 | 7.12 | 6.74
COc1cc(Nc2c(C#N)cnc3cc(OCCCN4CCN(C)CC4)c(OC)cc23)c(Cl)cc1Cl [Bosutinib] | 6.3 | 5.43 | 5.5 | 6.05 | 6.03 | 5.8 | 5.66 | 5.75 | 5.99 | 6.07 | 5.55 | 5.9 | 5.73 | 5.41 | 6.13 | 5.86 | 5.88 |  | 5.56 | 5.92
CCN(CC)C(=S)SSC(=S)N(CC)CC [Disulfiram] | 4.9 | 4.18 | 6.49 | 5.96 | < 4.18 | 5.44 | 5.01 | < 4.18 | 4.97 | 7.02 | 5.85 | 6.56 | 4.89 | 7.1 |  | 6.65 | 4.5 | 7.01 | 7.03 | < 4.18
CCC[C@H](N[C@H]1CCc2cc(F)cc(F)c2C1)C(=O)Nc1cn(C(C)(C)CNCC(C)(C)C)cn1 | 5.87 |  | 5.48 | < 4.18 | 5.63 | 4.51 | 4.68 | < 4.18 | < 4.18 | 5.24 | < 4.18 | 4.41 | 4.9 | 4.91 | 6.88 | < 4.18 | < 4.18 | 4.91 | < 4.18 | 4.84
Oc1cc(-c2nc(-c3ccccc3)[nH]c2-c2ccncc2)ccc1Cl | 5.06 | 4.84 | 5.07 | 4.77 | 4.49 | 4.69 |  | 4.92 | 4.97 | 5.09 | 4.87 | 4.76 | 4.59 | 4.66 | 5.14 | 4.78 | 4.52 | < 4.48 | 4.9 | < 4.48
CCC1=C[C@@H]2CN(C1)Cc1c([nH]c3ccccc13)[C@@](C(=O)OC)(c1cc3c(cc1OC)N(C)[C@H]1[C@@](O)(C(=O)OC)[C@H](OC(C)=O)[C@]4(CC)C=CCN5CC[C@]31[C@@H]54)C2 [Vinorelbine] |  | 8.14 | 7.64 | 7.94 | 7.66 | 7.99 | 7.88 | 7.75 | 7.91 | 7.41 | 8.39 | 9 | 7.73 | 7.83 | 7.85 | 7.91 | 8.68 | 5.34 | 7.13 | 6.24
